Reference: PMC10673369, “Preliminary SAR of Novel Pleuromutilin–Polyamine Conjugates” (Microorganisms, 2023)
Values after ≈ are worked out from the molar mass of the structure shown.

Columns and labels:
S. aureus ATCC 25923 = assay: MIC, broth dilution, S. aureus; type: cell-based; conditions: Staphylococcus aureus, ATCC25923, mean (n = 3)
Procedure: (§1) The susceptibility of bacterial strains S. aureus (ATCC 25923), E. coli (ATCC 25922), and P. aeruginosa (ATCC 27853 or PAO1) to antibiotics and compounds was determined using reported protocols. Additional antimicrobial evaluation against MRSA (ATCC 43300), Klebsiella pneumoniae (ATCC 700603), A. baumannii (ATCC 19606), Candida albicans (ATCC 90028), and Cryptococcus neoformans (ATCC 208821) was undertaken at the Community for Open Antimicrobial Drug Discovery at The University of Queensland (Australia) according to their standard protocols as reported previously. […]
(§2) 2.3. Antimicrobial Assays
(§3) The susceptibility of bacterial strains S. aureus (ATCC 25923), E. coli (ATCC 25922), and P. aeruginosa (ATCC 27853 or PAO1) to antibiotics and compounds was determined in microplates using the standard broth dilution method in accordance with the recommendations of the Comité de l’AntibioGramme de la Société Française de Microbiologie (CA-SFM). Briefly, the minimal inhibitory concentrations (MICs) were determined with an inoculum of 10^5 CFU in 200 µL of Mueller–Hinton broth (MHB) containing two-fold serial dilutions of each drug. The MIC was defined as the lowest […]
(§4) determine all MICs, the measurements were independently repeated in triplicate. Additional antimicrobial evaluation against MRSA (ATCC 43300), Klebsiella pneumoniae (ATCC 700603), A. baumannii (ATCC 19606), Candida albicans (ATCC 90028), and Cryptococcus neoformans (ATCC 208821) was undertaken at the Community for Open Antimicrobial Drug Discovery at The University of Queensland (Australia) according to their standard protocols as reported previously. […]
(§5) For C. neoformans, resazurin was added at 0.006% final concentration to each well and incubated for a further 3 h before MICs were determined by measuring […]
(§6) Colistin and vancomycin were used as positive bacterial inhibitor standards for Gram-negative and Gram-positive bacteria, respectively. Fluconazole was used as a positive fungal inhibitor standard for C. albicans and C. neoformans. The antibiotics were provided in […], with 3 above and 3 below its MIC value, and plated into the first 8 wells of column 23 of the 384-well NBS plates. The quality control (QC) of the assays was determined by the antimicrobial controls and the Z'-factor (using positive and negative controls). Each plate was deemed to fulfil the quality criteria (pass QC) if the Z'- […]
(§7) inhibition at their highest concentration, and no growth inhibition at their lowest concentration.
(§8) 2.4. Determination of the MICs of Antibiotics in the Presence of Synergizing Compounds

E. coli ATCC 25922 = assay: MIC, broth dilution, E. coli; type: cell-based, Escherichia coli; conditions: for MIC: Escherichia coli, ATCC25922, mean (n = 3)
Procedure: as §1, §2, §3, §4

P. aeruginosa PAO1 = assay: MIC, broth dilution, P. aeruginosa PAO1; type: cell-based; conditions: mean (n = 3); for MIC: Pseudomonas aeruginosa
Procedure: as §1, §2, §3, §4, §5, §6, §7, §8

[1] = system: K. pneumoniae ATCC 700603; assay: MIC, CO-ADD broth microdilution, K. pneumoniae; type: cell-based, Klebsiella pneumoniae; conditions: for MIC: Klebsiella pneumoniae, ATCC700603, mean (n = 2)
Procedure: as §1, §2
(§9) The susceptibility of bacterial strains S. aureus (ATCC 25923), E. coli (ATCC 25922), and P. […]
(§10) baumannii (ATCC 19606), Candida albicans (ATCC 90028), and Cryptococcus neoformans (ATCC 208821) was undertaken at the Community for Open Antimicrobial Drug Discovery at The University of Queensland (Australia) according to their standard protocols as reported previously. For antimicrobial assays, the tested strains were cultured in either Luria broth (LB) (In Vitro Technologies, USB75852), nutrient broth (NB) (Becton Dickson, 234000), or MHB at 37 °C overnight. A sample of culture was then diluted 40-fold in fresh MHB and incubated at 37 °C for 1.5−2 h. The compounds were serially diluted 2-fold across the wells of 96-well plates (Corning 3641, non-binding surface), with compound concentrations ranging from 0.015 to 64 µg/ mL, and plated in duplicate. The resultant mid-log phase cultures were diluted to the final concentration of 1 × 10^6 CFU/mL; then, 50 µL was added to each well of the compound-containing plates, giving a final compound concentration range of 0.008 to 32 µg/mL and a cell density of 5 × 10^5 CFU/mL. All plates were then covered and incubated at 37 °C for 18 h. Resazurin was added at 0.001% final concentration to each well and incubated for 2 h before MICs […]
as §5, §6, §7, §8

A. baumannii ATCC 19606 = assay: MIC, CO-ADD broth microdilution, A. baumannii; type: cell-based; conditions: for MIC: Acinetobacter baumannii, ATCC19606, mean (n = 2)
Procedure: as §1, §2, §9, §10, §5, §6, §7, §8

P. aeruginosa ATCC 27853 = assay: Antibiotic enhancement of doxycycline; type: cell-based; conditions: for Dox/P.a.: concentration required to restore doxycycline activity: doxycycline at 4.5 µM (2 µg/mL); for Dox/P.a.: fold change, ratio between intrinsic MIC of test compound and combination MIC: doxycycline at 4.5 µM
Procedure: Antibiotic restoring enhancer concentrations were determined using reported protocols (see Supplementary File).
Briefly, restoring enhancer concentrations were determined with an inoculum of 5x10^5 CFU in 200
µL of MHB containing two-fold serial dilutions of each derivative in the presence of doxycycline at 4.5
The lowest concentration of the polyamine
These measurements were independently repeated in triplicate. […]

MIC (S. aureus ATCC 25923) [µM]	MIC (E. coli ATCC 25922) [µM]	MIC E.c. (E. coli ATCC 25922; mean (n = 3))	MIC (P. aeruginosa PAO1) [µM]	MIC P.a. (P. aeruginosa PAO1)	MIC [1] [µM]	MIC K.p. ([1]; mean (n = 2))	MIC (A. baumannii ATCC 19606) [µM]	MIC A.b. (A. baumannii ATCC 19606; mean (n = 2))	Dox/P.a.: fold change, ratio between intrinsic MIC of test compound and combination MIC (P. aeruginosa ATCC 27853)	SMILES	Dox/P.a.: concentration required to restore doxycycline activity (P. aeruginosa ATCC 27853) [µM]
3.12	200 (≈ 98.8 µg/mL)	no activity	800	no activity	> 64.8	no activity	> 64.8	no activity	–	C=C[C@]1(C)C[C@@H](OC(=O)CSCCN(CC)CC)[C@]2(C)[C@H](C)CC[C@]3(CCC(=O)[C@H]32)[C@@H](C)[C@@H]1O [Compound 2, Tiamulin, reference compound]	> 405
18.1	18.1	–	72.5	–	> 23.2	–	> 23.2	–	4	C=C[C@]1(C)C[C@@H](OC(=O)CNCCCNCCCCNCCCNCC(=O)O[C@@H]2C[C@@](C)(C=C)[C@@H](O)[C@H](C)[C@]34CCC(=O)[C@H]3[C@@]2(C)[C@H](C)CC4)[C@]2(C)[C@H](C)CC[C@]3(CCC(=O)[C@H]32)[C@@H](C)[C@@H]1O.O=C(O)C(F)(F)F.O=C(O)C(F)(F)F.O=C(O)C(F)(F)F.O=C(O)C(F)(F)F [Compound 9a, N^1,N^1′-(Butane-1,4-diyl)bis(N^3-(2-(((3aR,4R,5R,7S,8S,9R,9aS,12R)-8-hydroxy-4,7,9,12-tetramethyl-3-oxo-7-vinyldecahydro-4,9a-propanocyclopenta [8]annulen-5-yl)oxy)-2-oxoethyl)propane-1,3-diaminium) 2,2,2-trifluoroacetate]	18.1

Second part, the compound before the results:

SMILES	MIC (S. aureus ATCC 25923) [µM]	MIC (E. coli ATCC 25922) [µM]	MIC E.c. (E. coli ATCC 25922; mean (n = 3))	MIC (P. aeruginosa PAO1) [µM]	MIC P.a. (P. aeruginosa PAO1)	MIC [1] [µM]	MIC K.p. ([1]; mean (n = 2))	MIC (A. baumannii ATCC 19606) [µM]	MIC A.b. (A. baumannii ATCC 19606; mean (n = 2))	Dox/P.a.: fold change, ratio between intrinsic MIC of test compound and combination MIC (P. aeruginosa ATCC 27853)	Dox/P.a.: concentration required to restore doxycycline activity (P. aeruginosa ATCC 27853) [µM]
C=C[C@]1(C)C[C@@H](OC(=O)CNCCCNCCCCCCNCCCNCC(=O)O[C@@H]2C[C@@](C)(C=C)[C@@H](O)[C@H](C)[C@]34CCC(=O)[C@H]3[C@@]2(C)[C@H](C)CC4)[C@]2(C)[C@H](C)CC[C@]3(CCC(=O)[C@H]32)[C@@H](C)[C@@H]1O.O=C(O)C(F)(F)F.O=C(O)C(F)(F)F.O=C(O)C(F)(F)F.O=C(O)C(F)(F)F [Compound 9b, N^1,N^1′-(Hexane-1,6-diyl)bis(N^3-(2-(((3aR,4R,5R,7S,8S,9R,9aS,12R)-8-hydroxy-4,7,9,12-tetramethyl-3-oxo-7-vinyldecahydro-4,9a-propanocyclopenta [8]annulen-5-yl)oxy)-2-oxoethyl)propane-1,3-diaminium) 2,2,2-trifluoroacetate]	17.8	8.88	–	142	–	> 22.7	–	> 22.7	–	4	35.5
C=C[C@]1(C)C[C@@H](OC(=O)CNCCCNCCCCCCCNCCCNCC(=O)O[C@@H]2C[C@@](C)(C=C)[C@@H](O)[C@H](C)[C@]34CCC(=O)[C@H]3[C@@]2(C)[C@H](C)CC4)[C@]2(C)[C@H](C)CC[C@]3(CCC(=O)[C@H]32)[C@@H](C)[C@@H]1O.O=C(O)C(F)(F)F.O=C(O)C(F)(F)F.O=C(O)C(F)(F)F.O=C(O)C(F)(F)F [Compound 9c, N^1,N^1′-(Heptane-1,7-diyl)bis(N^3-(2-(((3aR,4R,5R,7S,8S,9R,9aS,12R)-8-hydroxy-4,7,9,12-tetramethyl-3-oxo-7-vinyldecahydro-4,9a-propanocyclopenta [8]annulen-5-yl)oxy)-2-oxoethyl)propane-1,3-diaminium) 2,2,2-trifluoroacetate]	17.6	35.2	–	> 141	–	> 22.5	–	> 22.5	–	1	141
C=C[C@]1(C)C[C@@H](OC(=O)CNCCCNCCCCCCCCNCCCNCC(=O)O[C@@H]2C[C@@](C)(C=C)[C@@H](O)[C@H](C)[C@]34CCC(=O)[C@H]3[C@@]2(C)[C@H](C)CC4)[C@]2(C)[C@H](C)CC[C@]3(CCC(=O)[C@H]32)[C@@H](C)[C@@H]1O.O=C(O)C(F)(F)F.O=C(O)C(F)(F)F.O=C(O)C(F)(F)F.O=C(O)C(F)(F)F [Compound 9d, N^1,N^1′-(Octane-1,8-diyl)bis(N^3-(2-(((3aR,4R,5R,7S,8S,9R,9aS,12R)-8-hydroxy-4,7,9,12-tetramethyl-3-oxo-7-vinyldecahydro-4,9a-propanocyclopenta [8]annulen-5-yl)oxy)-2-oxoethyl)propane-1,3-diaminium) 2,2,2-trifluoroacetate]	34.8	70	–	> 139	–	> 22.3	–	> 22.3	–	1	139
C=C[C@]1(C)C[C@@H](OC(=O)CNCCCNCCCCCCCCCCNCCCNCC(=O)O[C@@H]2C[C@@](C)(C=C)[C@@H](O)[C@H](C)[C@]34CCC(=O)[C@H]3[C@@]2(C)[C@H](C)CC4)[C@]2(C)[C@H](C)CC[C@]3(CCC(=O)[C@H]32)[C@@H](C)[C@@H]1O.O=C(O)C(F)(F)F.O=C(O)C(F)(F)F.O=C(O)C(F)(F)F.O=C(O)C(F)(F)F [Compound 9e, N^1,N^1′-(Decane-1,10-diyl)bis(N^3-(2-(((3aR,4R,5R,7S,8S,9R,9aS,12R)-8-hydroxy-4,7,9,12-tetramethyl-3-oxo-7-vinyldecahydro-4,9a-propanocyclopenta [8]annulen-5-yl)oxy)-2-oxoethyl)propane-1,3-diaminium) 2,2,2-trifluoroacetate]	4.27	4.27	–	> 88	–	> 21.9	–	> 21.9	–	2	34.2
C=C[C@]1(C)C[C@@H](OC(=O)CNCCCNCCCCCCCCCCCCNCCCNCC(=O)O[C@@H]2C[C@@](C)(C=C)[C@@H](O)[C@H](C)[C@]34CCC(=O)[C@H]3[C@@]2(C)[C@H](C)CC4)[C@]2(C)[C@H](C)CC[C@]3(CCC(=O)[C@H]32)[C@@H](C)[C@@H]1O.O=C(O)C(F)(F)F.O=C(O)C(F)(F)F.O=C(O)C(F)(F)F.O=C(O)C(F)(F)F [Compound 9f, N^1,N^1′-(Dodecane-1,12-diyl)bis(N^3-(2-(((3aR,4R,5R,7S,8S,9R,9aS,12R)-8-hydroxy-4,7,9,12-tetramethyl-3-oxo-7-vinyldecahydro-4,9a-propanocyclopenta [8]annulen-5-yl)oxy)-2-oxoethyl)propane-1,3-diaminium) 2,2,2-trifluoroacetate]	2.1	4.19	–	33.5	–	21.5	–	2.7	–	4	8.38
